How the values were obtained:
[1] = target: T1, GLS1 (purified recombinant human GAC) (Homo sapiens, UniProt O94925); assay: GLS1 enzymatic activity assay (dual-coupled, Amplex UltraRed/resorufin); type: biochemical
T1 sequence (O94925 55-598 isoform O94925-3 limits assumed): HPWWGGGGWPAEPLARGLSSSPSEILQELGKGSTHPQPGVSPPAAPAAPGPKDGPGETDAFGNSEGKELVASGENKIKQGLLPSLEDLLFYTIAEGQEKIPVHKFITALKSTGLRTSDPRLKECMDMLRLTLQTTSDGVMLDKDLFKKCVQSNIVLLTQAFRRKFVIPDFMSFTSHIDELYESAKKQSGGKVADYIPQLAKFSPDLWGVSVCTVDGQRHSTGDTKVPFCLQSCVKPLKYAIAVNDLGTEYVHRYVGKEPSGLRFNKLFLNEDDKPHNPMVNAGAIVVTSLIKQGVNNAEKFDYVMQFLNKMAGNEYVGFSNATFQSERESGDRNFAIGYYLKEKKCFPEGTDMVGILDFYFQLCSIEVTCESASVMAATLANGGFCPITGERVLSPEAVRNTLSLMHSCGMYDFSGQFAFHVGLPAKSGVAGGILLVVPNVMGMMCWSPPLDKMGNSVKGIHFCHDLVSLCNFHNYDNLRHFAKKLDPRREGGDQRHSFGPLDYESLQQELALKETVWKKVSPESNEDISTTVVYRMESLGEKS
Summary of the method: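 Recombinant human GAC (2 nM) preincubated with 50 mM potassium phosphate, then inhibitor (10 min each, RT); 1 mM glutamine, pH 7.4 Hepes buffer, 1% DMSO. Glutamate coupled via glutamate oxidase/HRP to resorufin (Ex 530/Em 590), kinetic or 20-min endpoint; IC50 by four-parameter logistic fit.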

[2] = system: A549 cells; assay: A549 proliferation (viability) assay, Cell Titer Fluor, 72 hours; type: cell-based; conditions: Homo sapiens
Summary of the method: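 Compound was added to A549 cells (1000/well, pre-grown 24 h in RPMI 1640 plus 10% dialyzed FBS) at 0.5% DMSO and left 72 h under 37 °C, 5% CO2, ambient O2. Live-cell fluorescence (Cell Titer Fluor) gave the EC50.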

Row | SMILES | IC50 [1] [nM] | EC50 [2] [nM]
1 | N#Cc1ccc(CNC(=O)c2cn(CC(F)CCn3ccc(NC(=O)Cc4ccccc4)c(F)c3=O)nn2)cn1 (centres unmarked) [Example 380, N-[(6-cyanopyridin-3-yl)methyl]-1-{2-fluoro-4-[3-fluoro-2-oxo-4-(2-phenylacetamido)-1,2-dihydropyridin-1-yl]butyl}-1H-1,2,3-triazole-4-carboxamide] | 100 to 500 | 500 to 5000
2 | O=C(Cc1ccccc1)Nc1ccn(CCC(F)Cn2cc(C(=O)NCC3CCCC3)nn2)c(=O)c1F (centres unmarked) [Example 381, N-(cyclopentylmethyl)-1-{2-fluoro-4-[3-fluoro-2-oxo-4-(2-phenylacetamido)-1,2-dihydropyridin-1-yl]butyl}-1H-1,2,3-triazole-4-carboxamide] | 100 to 500 | 500 to 5000
3 | Nc1ccn(CCC(F)Cn2cc(C(=O)NCc3cccc(OC(F)(F)F)c3)nn2)c(=O)n1 (centres unmarked) [Example 382, 1-[4-(4-amino-2-oxo-1,2-dihydropyrimidin-1-yl)-2-fluorobutyl]-N-{[3-(trifluoromethoxy)phenyl]methyl}-1H-1,2,3-triazole-4-carboxamide] | 500 to 5000 | > 5000
4 | O=C(Nc1ccn(CCC(F)Cn2cc(C(=O)NCc3cccc(OC(F)(F)F)c3)nn2)c(=O)n1)OC1CCCCC1 (centres unmarked) [Example 383, cyclohexyl N-(1-{3-fluoro-4-[4-({[3-(trifluoromethoxy)phenyl]methyl}carbamoyl)-1H-1,2,3-triazol-1-yl]butyl}-2-oxo-1,2-dihydropyrimidin-4-yl)carbamate] | < 100 | < 100
5 | CC(C)OC(=O)Nc1ccn(CCC(F)Cn2cc(C(=O)NCc3cccc(OC(F)(F)F)c3)nn2)c(=O)n1 (centres unmarked) [Example 384, propan-2-yl N-(1-{3-fluoro-4-[4-({[3-(trifluoromethoxy)phenyl]methyl}carbamoyl)-1H-1,2,3-triazol-1-yl]butyl}-2-oxo-1,2-dihydro-pyrimidin-4-yl)carbamate] | < 100 | 100 to 500
6 | O=C(Nc1ccn(CCC(F)Cn2cc(C(=O)NCc3cccc(OC(F)(F)F)c3)nn2)c(=O)n1)OC1CCC1 (centres unmarked) [Example 385, cyclobutyl N-(1-{3-fluoro-4-[4-({[3-(trifluoromethoxy)phenyl]methyl}carbamoyl)-1H-1,2,3-triazol-1-yl]butyl}-2-oxo-1,2-dihydro-pyrimidin-4-yl)carbamate] | < 100 | 100 to 500
7 | O=C(CC1CCCC1)Nc1cnn(CCC(F)Cn2cc(C(=O)NCc3cccc(OC(F)(F)F)c3)nn2)c(=O)c1 (centres unmarked) [Example 386, 1-(4-(4-(2-cyclopentylacetamido)-6-oxopyridazin-1(6H)-yl)-2-fluorobutyl)-N-(3-(trifluoromethoxy)benzyl)-1H-1,2,3-triazole-4-carboxamide] | < 100 | 100 to 500
8 | O=C(CC1CCCC1)Nc1ccn(CCC(F)Cn2cc(C(=O)NCc3ncccc3F)nn2)c(=O)c1F (centres unmarked) [Example 387, 1-{4-[4-(2-cyclopentylacetamido)-3-fluoro-2-oxo-1,2-dihydropyridin-1-yl]-2-fluorobutyl}-N-[(3-fluoropyridin-2-yl)methyl]-1H-1,2,3-triazole-4-carboxamide] | < 100 | < 100
9 | O=C(CC1CCCC1)Nc1ccn(CCC(F)Cn2cc(C(=O)NCc3ccc(CF)nc3)nn2)c(=O)c1F (centres unmarked) [Example 388, 1-{4-[4-(2-cyclopentylacetamido)-3-fluoro-2-oxo-1,2-dihydropyridin-1-yl]-2-fluorobutyl}-N-{[6-(fluoromethyl)pyridin-3-yl]methyl}-1H-1,2,3-triazole-4-carboxamide] | < 100 | < 100
10 | O=C(CC1CCC1)Nc1ccn(CCC(F)Cn2cc(C(=O)NCc3ccc(OC(F)(F)F)cn3)nn2)c(=O)c1F (centres unmarked) [Example 389, 1-{4-[4-(2-cyclobutylacetamido)-3-fluoro-2-oxo-1,2-dihydropyridin-1-yl]-2-fluorobutyl}-N-{[5-(trifluoromethoxy)pyridin-2-yl]methyl}-1H-1,2,3-triazole-4-carboxamide] | < 100 | < 100
11 | O=C(CC1CCC1)Nc1ccn(CCC(F)Cn2cc(C(=O)NCc3ccc(C(F)(F)F)cn3)nn2)c(=O)c1F (centres unmarked) [Example 390, 1-{4-[4-(2-cyclobutylacetamido)-3-fluoro-2-oxo-1,2-dihydropyridin-1-yl]-2-fluorobutyl}-N-{[5-(trifluoromethyl)pyridin-2-yl]methyl}-1H-1,2,3-triazole-4-carboxamide] | 100 to 500 | < 100
12 | NC(=O)c1cn(CC(F)CCn2ccc(NC(=O)CC3CCC3)c(F)c2=O)nn1 (centres unmarked) [Example 391, 1-{4-[4-(2-cyclobutylacetamido)-3-fluoro-2-oxo-1,2-dihydropyridin-1-yl]-2-fluorobutyl}-1H-1,2,3-triazole-4-carboxamide] | 500 to 5000 | > 5000
13 | O=C(Cc1ccccc1)Nc1ccn(CCC(F)Cn2cc(C(=O)NCc3cc(Cl)ccc3F)nn2)c(=O)c1F (centres unmarked) [Example 392, N-[(5-chloro-2-fluorophenyl)methyl]-1-{2-fluoro-4-[3-fluoro-2-oxo-4-(2-phenylacetamido)-1,2-dihydropyridin-1-yl]butyl}-1H-1,2,3-triazole-4-carboxamide] | < 100 | < 100
14 | O=C(CC1CCCC1)Nc1ccn(CCC(F)Cn2cc(C(=O)NCc3ccccn3)nn2)c(=O)c1F (centres unmarked) [Example 393, 1-{4-[4-(2-cyclopentylacetamido)-3-fluoro-2-oxo-1,2-dihydropyridin-1-yl]-2-fluorobutyl}-N-(pyridin-2-ylmethyl)-1H-1,2,3-triazole-4-carboxamide] | < 100 | < 100
15 | O=C(CC1CCCC1)Nc1ccn(CCC(F)Cn2cc(C(=O)NCc3ccc(C(F)(F)F)cn3)nn2)c(=O)c1F (centres unmarked) [Example 394, 1-{4-[4-(2-cyclopentylacetamido)-3-fluoro-2-oxo-1,2-dihydropyridin-1-yl]-2-fluorobutyl}-N-{[5-(trifluoromethyl)pyridin-2-yl]methyl}-1H-1,2,3-triazole-4-carboxamide] | < 100 | < 100
16 | O=C(CC1CCCC1)Nc1ccn(CCC(F)Cn2cc(C(=O)NCc3cc(Cl)ccc3F)nn2)c(=O)c1F (centres unmarked) [Example 395, N-[(5-chloro-2-fluorophenyl)methyl]-1-{4-[4-(2-cyclopentylacetamido)-3-fluoro-2-oxo-1,2-dihydropyridin-1-yl]-2-fluorobutyl}-1H-1,2,3-triazole-4-carboxamide] | < 100 | < 100
17 | Cc1ccc(CNC(=O)c2cn(CC(F)CCn3ccc(NC(=O)OC4CCC4)c(F)c3=O)nn2)cn1 (centres unmarked) [Example 396, cyclobutyl N-{3-fluoro-1-[3-fluoro-4-(4-{[(6-methylpyridin-3-yl)methyl]carbamoyl}-1H-1,2,3-triazol-1-yl)butyl]-2-oxo-1,2-dihydropyridin-4-yl}carbamate] | 100 to 500 | < 100
18 | O=C(Nc1ccn(CCC(F)Cn2cc(C(=O)NCc3cccc(C(F)(F)F)n3)nn2)c(=O)c1F)OC1CCC1 (centres unmarked) [Example 397, cyclobutyl N-(3-fluoro-1-{3-fluoro-4-[4-({[6-(trifluoromethyl)pyridin-2-yl]methyl}carbamoyl)-1H-1,2,3-triazol-1-yl]butyl}-2-oxo-1,2-dihydropyridin-4-yl)carbamate] | 100 to 500 | 100 to 500
19 | O=C(Nc1ccn(CCC(F)Cn2cc(C(=O)NCc3cncc(C(F)(F)F)c3)nn2)c(=O)c1F)OC1CCC1 (centres unmarked) [Example 398, cyclobutyl N-(3-fluoro-1-{3-fluoro-4-[4-({[5-(trifluoromethyl)pyridin-3-yl]methyl}carbamoyl)-1H-1,2,3-triazol-1-yl]butyl}-2-oxo-1,2-dihydropyridin-4-yl)carbamate] | < 100 | < 100
20 | O=C(Nc1ccn(CCC(F)Cn2cc(C(=O)NCc3ccc(C(F)(F)F)nc3)nn2)c(=O)c1F)OC1CCC1 (centres unmarked) [Example 399, cyclobutyl N-(3-fluoro-1-{3-fluoro-4-[4-({[6-(trifluoromethyl)pyridin-3-yl]methyl}carbamoyl)-1H-1,2,3-triazol-1-yl]butyl}-2-oxo-1,2-dihydropyridin-4-yl)carbamate] | 100 to 500 | 100 to 500
21 | O=C(CC1CCCC1)Nc1ccn(CCC(F)Cn2cc(C(=O)NCc3ccc(OC(F)(F)F)cn3)nn2)c(=O)c1F (centres unmarked) [Example 400, 1-{4-[4-(2-cyclopentylacetamido)-3-fluoro-2-oxo-1,2-dihydropyridin-1-yl]-2-fluorobutyl}-N-{[5-(trifluoromethoxy)pyridin-2-yl]methyl}-1H-1,2,3-triazole-4-carboxamide] | < 100 | < 100
22 | O=C(CC1CCC1)Nc1cnn(CCC(F)Cn2cc(C(=O)NCc3cc(C(F)(F)F)ccn3)nn2)c(=O)c1 (centres unmarked) [Example 401, 1-{4-[4-(2-cyclobutylacetamido)-6-oxo-1,6-dihydropyridazin-1-yl]-2-fluorobutyl}-N-{[4-(trifluoromethyl)pyridin-2-yl]methyl}-1H-1,2,3-triazole-4-carboxamide] | < 100 | 100 to 500

Reference: patent US20160002204A1 (Board of Regents, The University of Texas System, priority 2014, published 2016)
